Reference: ChEMBL document CHEMBL1833905, “Design, synthesis and primary activity assay of tripeptidomimetics as histone deacetylase inhibitors with linear linker and branched cap group” (Eur J Med Chem, 2011)

Columns and labels:
Histone deacetylase 8 = target: T1, Histone deacetylase 8 (Homo sapiens, UniProt Q9BY41); test: Inhibition of human HDAC8 expressed in Escherichia coli using Boc-Lys (acetyl)-AMC as substrate treated for 5 mins before substrate addition measured after 30 mins by fluorescence assay
T1 sequence (Q9BY41 whole entry): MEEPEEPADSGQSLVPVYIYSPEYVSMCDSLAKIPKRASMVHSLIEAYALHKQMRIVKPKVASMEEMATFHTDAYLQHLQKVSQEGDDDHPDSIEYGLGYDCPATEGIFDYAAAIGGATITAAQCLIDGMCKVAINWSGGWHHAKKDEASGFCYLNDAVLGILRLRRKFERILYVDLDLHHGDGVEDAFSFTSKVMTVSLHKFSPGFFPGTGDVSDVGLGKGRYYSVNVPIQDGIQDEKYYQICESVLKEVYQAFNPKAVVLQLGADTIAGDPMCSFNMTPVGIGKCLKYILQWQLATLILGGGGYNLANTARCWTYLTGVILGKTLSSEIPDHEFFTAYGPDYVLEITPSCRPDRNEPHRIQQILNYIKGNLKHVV

MCF7 = test: Antiproliferative activity against human MCF7 cells after 48 hrs by MTT assay; type: functional, cell-based; settings: MCF7, 48 h
Histone deacetylase 1 = Histone deacetylase 1 (Homo sapiens, UniProt Q13547); test: Inhibition of human HDAC1 expressed in Escherichia coli using fluorogenic substrate treated for 5 mins before substrate addition measured after 30 mins by fluorescence assay
MDA-MB-231 = test: Antiproliferative activity against human MDA-MB-231 cells after 48 hrs by MTT assay; type: functional, cell-based; settings: MDA-MB-231, 48 h
PC-3 = test: cells; settings: Homo sapiens, PC-3, 48 h

Sequence of Histone deacetylase 1 (Q13547 whole entry): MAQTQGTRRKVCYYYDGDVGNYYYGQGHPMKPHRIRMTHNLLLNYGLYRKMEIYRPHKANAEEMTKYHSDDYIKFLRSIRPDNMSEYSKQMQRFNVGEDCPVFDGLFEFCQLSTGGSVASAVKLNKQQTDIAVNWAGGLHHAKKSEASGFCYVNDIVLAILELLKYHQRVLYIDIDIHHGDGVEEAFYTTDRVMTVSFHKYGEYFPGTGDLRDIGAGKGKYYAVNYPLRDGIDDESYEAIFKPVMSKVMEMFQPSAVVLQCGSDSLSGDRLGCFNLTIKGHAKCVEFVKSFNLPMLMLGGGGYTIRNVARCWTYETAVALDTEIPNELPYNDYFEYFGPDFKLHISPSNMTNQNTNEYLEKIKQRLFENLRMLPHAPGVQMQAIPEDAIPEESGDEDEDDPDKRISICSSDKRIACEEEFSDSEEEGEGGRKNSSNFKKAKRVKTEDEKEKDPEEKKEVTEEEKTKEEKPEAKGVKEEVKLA

| IC50 (Histone deacetylase 8) [µM] | IC50 (MCF7) [µM] | IC50 (Histone deacetylase 1) [µM] | IC50 (MDA-MB-231) [µM] | IC50 (PC-3) [µM] | SMILES |
| --- | --- | --- | --- | --- | --- |
| 0.96 | – | – | – | – | CC(C)(C)OC(=O)NCCCC(=O)N1CC2(C[C@H]1C(=O)NCCCCCC(=O)NO)SCCS2 |
| 1.93 | – | – | – | – | NCCC(=O)N1CC2(C[C@H]1C(=O)NCCCCCC(=O)NO)SCCS2 |
| – | 3.51 | 0.68 | 3.5 | 4.3 | CC(C)C[C@H](NC(=O)OC(C)(C)C)C(=O)N1CC2(C[C@H]1C(=O)NCCCCCC(=O)NO)SCCS2 |
| 0.035 | 7.78 | 0.98 | 2.79 | 12.7 | CC(C)(C)OC(=O)N[C@@H](Cc1ccccc1)C(=O)N1CC2(C[C@H]1C(=O)NCCCCCC(=O)NO)SCCS2 |
| 0.021 | 21.6 | 0.45 | 30.5 | 24.7 | CC(C)(C)OC(=O)N[C@@H](Cc1ccc(O)cc1)C(=O)N1CC2(C[C@H]1C(=O)NCCCCCC(=O)NO)SCCS2 |
| 0.14 | 9.16 | 0.75 | 5.83 | 13.7 | CC(C)(C)OC(=O)N[C@@H](Cc1c[nH]c2ccccc12)C(=O)N1CC2(C[C@H]1C(=O)NCCCCCC(=O)NO)SCCS2 |
| 0.35 | 42.5 | 0.98 | 12.8 | 34.6 | CC(C)(C)OC(=O)NCCCC[C@H](NC(=O)OC(C)(C)C)C(=O)N1CC2(C[C@H]1C(=O)NCCCCCC(=O)NO)SCCS2 |

The next lines start with the molecule.

| SMILES | IC50 (Histone deacetylase 8) [µM] | IC50 (MCF7) [µM] | IC50 (Histone deacetylase 1) [µM] | IC50 (MDA-MB-231) [µM] | IC50 (PC-3) [µM] |
| --- | --- | --- | --- | --- | --- |
| O=C(CCCCCNC(=O)[C@@H]1CC2(CN1)SCCS2)NO | 2.59 | – | – | – | – |
| N[C@@H](Cc1ccccc1)C(=O)N1CC2(C[C@H]1C(=O)NCCCCCC(=O)NO)SCCS2 | 0.84 | – | – | – | – |
| N[C@@H](Cc1ccc(O)cc1)C(=O)N1CC2(C[C@H]1C(=O)NCCCCCC(=O)NO)SCCS2 | 0.49 | > 100 | 0.45 | > 100 | > 100 |
| N[C@@H](Cc1c[nH]c2ccccc12)C(=O)N1CC2(C[C@H]1C(=O)NCCCCCC(=O)NO)SCCS2 | 0.69 | – | – | – | – |
| NCCCC[C@H](N)C(=O)N1CC2(C[C@H]1C(=O)NCCCCCC(=O)NO)SCCS2 | 4.77 | – | – | – | – |
| O=C(CCCCCCC(=O)Nc1ccccc1)NO [VORINOSTAT] | – | – | – | – | 1.98 |
